Results: PubChem BioAssay AID256 (DTP/NCI, 2004)
Where “and” joins values, the source holds several entries; their conditions need not be identical. Equal entries are not always repeated. Toxic doses and inconclusive results are not listed. The calls were made as follows: active = survival T/C of 150% or more; inactive = T/C below 125% in these data.

System: CD2F1 mice, L1210 leukemia ip, survival T/C
Experiment: NCI In Vivo Anticancer Drug Screen. Data for tumor model L1210 Leukemia (intraperitoneal) in CD2F1 (CDF1) mice
Details: higher = longer survival
How it was run: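 Compound-dosed mice with transplantable tumor versus matched vehicle controls; endpoint ratio T/C reported.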

[1] = endpoint: mean survival time, dose: 25.0 mg/kg/injection, schedule: Q04DX003 (ip), vehicle: saline with Tween-80
[2] = endpoint: mean survival time, dose: 100.0 mg/kg/injection, schedule: Q04DX003 (ip), vehicle: saline with Tween-80
[3] = endpoint: mean survival time, dose: 200.0 mg/kg/injection, schedule: Q04DX003 (ip), vehicle: saline with Tween-80
[4] = endpoint: mean survival time, dose: 400.0 mg/kg/injection, schedule: Q04DX003 (ip), vehicle: saline with Tween-80
[5] = endpoint: mean survival time, dose: 100.0 mg/kg/injection, schedule: Q01DX009 (ip), vehicle: saline with Tween-80
[6] = endpoint: mean survival time, dose: 200.0 mg/kg/injection, schedule: Q01DX009 (ip), vehicle: saline with Tween-80
[7] = endpoint: mean survival time, dose: 400.0 mg/kg/injection, schedule: Q01DX009 (ip), vehicle: saline with Tween-80

Measured: T/C

Cc1ccc([NH-])cc1C.Cc1ccc([NH-])cc1C.[Cl][Pt+2][Cl]
inactive: endpoint: mean survival time, dose: 3.12 mg/kg/injection, schedule: Q04DX003 (ip), vehicle: distilled water + Tween-80 103 % of control | endpoint: mean survival time, dose: 6.25 mg/kg/injection, schedule: Q04DX003 (ip), vehicle: distilled water + Tween-80 103 % of control | endpoint: mean survival time, dose: 12.5 mg/kg/injection, schedule: Q04DX003 (ip), vehicle: distilled water + Tween-80 108 % of control | endpoint: mean survival time, dose: 25.0 mg/kg/injection, schedule: Q04DX003 (ip), vehicle: distilled water + Tween-80 106 % of control | endpoint: mean survival time, dose: 50.0 mg/kg/injection, schedule: Q04DX003 (ip), vehicle: distilled water + Tween-80 108 % of control

CCCCN=C(N)CCl
inactive: endpoint: mean survival time, dose: 25.0 mg/kg/injection, schedule: Q04DX002 (ip), vehicle: saline 100 % of control | endpoint: mean survival time, dose: 50.0 mg/kg/injection, schedule: Q04DX002 (ip), vehicle: saline 100 % of control | endpoint: mean survival time, dose: 100.0 mg/kg/injection, schedule: Q04DX002 (ip), vehicle: saline 100 % of control and 111 % of control

Cc1ccc(Cl)cc1[NH-].Cc1ccc(Cl)cc1[NH-].[Cl][Pt+2][Cl]
inactive: [1] 100 % of control | endpoint: mean survival time, dose: 50.0 mg/kg/injection, schedule: Q04DX003 (ip), vehicle: saline with Tween-80 95 % of control | [2] 97 % of control | [3] 101 % of control

CN(N)c1nc2c(=O)[nH]c(N)nc2n1C1OC(CO)C(O)C1O (stereo not drawn)
inactive: endpoint: mean survival time, dose: 1.56 mg/kg/injection, schedule: Q01DX005 (ip), vehicle: water 101 % of control | endpoint: mean survival time, dose: 3.12 mg/kg/injection, schedule: Q01DX005 (ip), vehicle: water 101 % of control | endpoint: mean survival time, dose: 6.25 mg/kg/injection, schedule: Q01DX005 (ip), vehicle: water 101 % of control | endpoint: mean survival time, dose: 12.5 mg/kg/injection, schedule: Q01DX005 (ip), vehicle: water 98 % of control | endpoint: mean survival time, dose: 25.0 mg/kg/injection, schedule: Q01DX005 (ip), vehicle: water 103 % of control

c1ccc2snnc2c1
inactive: endpoint: mean survival time, dose: 100.0 mg/kg/injection, schedule: Q01DX001 (ip), vehicle: other 97 % of control | endpoint: mean survival time, dose: 200.0 mg/kg/injection, schedule: Q01DX001 (ip), vehicle: other 103 % of control | endpoint: mean survival time, dose: 400.0 mg/kg/injection, schedule: Q01DX001 (ip), vehicle: other 88 % of control

O=P1(N(CCCl)CCCl)OC(c2ccccc2)=CCN1c1ccccc1 (stereo not drawn)
inactive: endpoint: mean survival time, dose: 31.25 mg/kg/injection, schedule: Q01DX001 (ip), vehicle: saline 103 % of control | endpoint: mean survival time, dose: 62.5 mg/kg/injection, schedule: Q01DX001 (ip), vehicle: saline 97 % of control | endpoint: mean survival time, dose: 125.0 mg/kg/injection, schedule: Q01DX001 (ip), vehicle: saline 100 % of control | endpoint: mean survival time, dose: 250.0 mg/kg/injection, schedule: Q01DX001 (ip), vehicle: saline 100 % of control | endpoint: mean survival time, dose: 500.0 mg/kg/injection, schedule: Q01DX001 (ip), vehicle: saline 103 % of control

Nc1cc2c(cc1Br)-c1ccccc1C2Br (stereo not drawn)
inactive: [2] 94 % of control | [4] 92 % of control

COCCOCCN1CCN(CCCN2c3ccccc3Sc3ccc(C(F)(F)F)cc32)CC1
inactive: endpoint: mean survival time, dose: 37.5 mg/kg/injection, schedule: Q04DX003 (ip), vehicle: saline 113 % of control | endpoint: mean survival time, dose: 50.0 mg/kg/injection, schedule: Q04DX003 (ip), vehicle: saline 121 % of control

O=c1[nH]c(=O)n(C2CC(O)C(CO)O2)cc1Br (stereo not drawn)
inactive: endpoint: mean survival time, dose: 25.0 mg/kg/injection, schedule: Q01DX009 (ip), vehicle: Klucel (hydroxypropylcellulose) (HPC) 103 % of control | endpoint: mean survival time, dose: 50.0 mg/kg/injection, schedule: Q01DX009 (ip), vehicle: Klucel (hydroxypropylcellulose) (HPC) 123 % of control | endpoint: mean survival time, dose: 100.0 mg/kg/injection, schedule: Q01DX009 (ip), vehicle: Klucel (hydroxypropylcellulose) (HPC) 120 % of control | endpoint: mean survival time, dose: 200.0 mg/kg/injection, schedule: Q01DX009 (ip), vehicle: Klucel (hydroxypropylcellulose) (HPC) 112 % of control | endpoint: mean survival time, dose: 400.0 mg/kg/injection, schedule: Q01DX009 (ip), vehicle: Klucel (hydroxypropylcellulose) (HPC) 112 % of control | endpoint: mean survival time, dose: 800.0 mg/kg/injection, schedule: Q01DX009 (ip), vehicle: Klucel (hydroxypropylcellulose) (HPC) 115 % of control

CCOC(=O)Nc1ccc(C(=O)O)c(O)c1
inactive: [2] 96 % of control | [3] 96 % of control | [4] 100 % of control

CC(S(N)(=O)=O)S(N)(=O)=O
inactive: endpoint: mean survival time, dose: 100.0 mg/kg/injection, schedule: Q01DX001 (ip), vehicle: saline with Tween-80 105 % of control | endpoint: mean survival time, dose: 200.0 mg/kg/injection, schedule: Q01DX001 (ip), vehicle: saline with Tween-80 102 % of control | endpoint: mean survival time, dose: 400.0 mg/kg/injection, schedule: Q01DX001 (ip), vehicle: saline with Tween-80 94 % of control

O=[N+]([O-])c1ccc2nc(CC(O)(C(F)(F)F)C(F)(F)F)ccc2c1
inactive: [5] 112 % of control | [2] 102 % of control | [6] 110 % of control | [3] 97 % of control | [7] 101 % of control | [4] 113 % of control

CCCCCCCCC(Sc1n[nH]c(=O)[nH]c1=O)C(=O)OCC (stereo not drawn)
inactive: endpoint: mean survival time, dose: 12.5 mg/kg/injection, schedule: Q01DX005 (ip), vehicle: distilled water + Tween-80 101 % of control | endpoint: mean survival time, dose: 25.0 mg/kg/injection, schedule: Q01DX005 (ip), vehicle: distilled water + Tween-80 95 % of control | endpoint: mean survival time, dose: 50.0 mg/kg/injection, schedule: Q01DX005 (ip), vehicle: distilled water + Tween-80 95 % of control | endpoint: mean survival time, dose: 100.0 mg/kg/injection, schedule: Q01DX005 (ip), vehicle: distilled water + Tween-80 100 % of control | endpoint: mean survival time, dose: 200.0 mg/kg/injection, schedule: Q01DX005 (ip), vehicle: distilled water + Tween-80 95 % of control

Cc1oc(N)c(C#N)c1C
inactive: [5] 101 % of control | [2] 102 % of control | [6] 104 % of control | [3] 96 % of control | [7] 106 % of control | [4] 102 % of control

CC(C)(O)c1cc(Cl)c(C#N)c(Cl)c1
inactive: endpoint: mean survival time, dose: 37.5 mg/kg/injection, schedule: Q04DX002 (ip), vehicle: saline with Tween-80 109 % of control | endpoint: mean survival time, dose: 75.0 mg/kg/injection, schedule: Q04DX002 (ip), vehicle: saline with Tween-80 102 % of control | endpoint: mean survival time, dose: 150.0 mg/kg/injection, schedule: Q04DX002 (ip), vehicle: saline with Tween-80 102 % of control | endpoint: mean survival time, dose: 300.0 mg/kg/injection, schedule: Q04DX002 (ip), vehicle: saline with Tween-80 93 % of control

Cc1ccnc(NS(=O)(=O)c2ccc(N)cc2)n1
inactive: endpoint: mean survival time, dose: 100.0 mg/kg/injection, schedule: Q01DX009 (ip), vehicle: saline 100 % of control | endpoint: mean survival time, dose: 200.0 mg/kg/injection, schedule: Q01DX009 (ip), vehicle: saline 96 % of control | endpoint: mean survival time, dose: 400.0 mg/kg/injection, schedule: Q01DX009 (ip), vehicle: saline 97 % of control

Cc1cn(C2CC3O[P@@](=S)(Nc4ccccc4)OCC3O2)c(=O)[nH]c1=O (stereo partly drawn)
inactive: endpoint: median survival time, dose: 11.5 mg/kg/injection, schedule: Q01DX005 (ip), vehicle: saline with Tween-80 108 % of control | endpoint: median survival time, dose: 23.0 mg/kg/injection, schedule: Q01DX005 (ip), vehicle: saline with Tween-80 103 % of control | endpoint: median survival time, dose: 46.0 mg/kg/injection, schedule: Q01DX005 (ip), vehicle: saline with Tween-80 98 % of control

CCN(CC)P(=O)(NCCCl)OC (stereo not drawn)
inactive: endpoint: mean survival time, dose: 100.0 mg/kg/injection, schedule: Q01DX009 (ip), vehicle: DMSO 103 % of control

O=P(OCCCl)(OCCCl)C(Cl)(Cl)Cl
inactive: endpoint: mean survival time, dose: 100.0 mg/kg/injection, schedule: Q01DX001 (ip), vehicle: saline 103 % of control | endpoint: mean survival time, dose: 200.0 mg/kg/injection, schedule: Q01DX001 (ip), vehicle: saline 102 % of control | endpoint: mean survival time, dose: 400.0 mg/kg/injection, schedule: Q01DX001 (ip), vehicle: saline 103 % of control

CCCC1CC[N-]CC1.CCCC1CC[N-]CC1.CCCC1CC[N-]CC1.CCCC1CC[N-]CC1.[Cl][Rh][Cl]
inactive: [1] 90 % of control

c1cc(N2CCCC2)cc(N2CCCC2)c1
inactive: [5] 96 % of control | [2] 102 % of control | [6] 88 % of control | [3] 106 % of control | [7] 88 % of control | [4] 98 % of control

O=C1C=C(c2ccccc2)C2(c3ccccc3)C1C1C(c3ccccc3)=C(c3ccccc3)C2C1(O)c1ccc2ccccc2c1 (stereo not drawn)
inactive: [5] 89 % of control | [6] 92 % of control | [7] 92 % of control

C=CC1=NC(C)(C)CC(C)O1 (stereo not drawn)
inactive: endpoint: mean survival time, dose: 0.78 mg/kg/injection, schedule: Q01DX009 (ip), vehicle: water 104 % of control | endpoint: mean survival time, dose: 1.56 mg/kg/injection, schedule: Q01DX009 (ip), vehicle: water 102 % of control | endpoint: mean survival time, dose: 3.13 mg/kg/injection, schedule: Q01DX009 (ip), vehicle: water 105 % of control | endpoint: mean survival time, dose: 6.25 mg/kg/injection, schedule: Q01DX009 (ip), vehicle: water 104 % of control | endpoint: mean survival time, dose: 12.5 mg/kg/injection, schedule: Q01DX009 (ip), vehicle: water 100 % of control

O=[N+]([O-])c1cccc(/C=C/C=C/c2cccc(S(=O)(=O)F)c2)c1
inactive: [5] 100 % of control | [2] 93 % of control | [6] 93 % of control | [3] 96 % of control | [7] 95 % of control | [4] 90 % of control
